The subject of assay [1] is HepG2. The experiment in a line: Cytotoxicity against human HepG2 cells assessed as decrease in cell proliferation after 48 hrs by MTT colorimetric assay. The class given is functional, cell-based. The note with it: HepG2, 48 h. Background: Formazan colour is commonly taken as a measure of viable cells.
Assay [2] relates to Hep 3B2. Nature of the assay: Cytotoxicity against human Hep3B cells assessed as decrease in cell proliferation after 48 hrs by MTT colorimetric assay. Type of assay: functional, cell-based.
For assay [3], the system named is Bcap37. The experiment in a line: Cytotoxicity against human Bcap37 cells assessed as decrease in cell proliferation after 48 hrs by MTT colorimetric assay. Type of assay: functional, cell-based. The note with it: Bcap37, 48 h.
Assay [4] relates to MCF7. The experiment in a line: Cytotoxicity against human MCF7 cells assessed as decrease in cell proliferation after 48 hrs by MTT colorimetric assay. Type of assay: functional, cell-based. The note with it: Homo sapiens, MCF7, 48 h.
The subject of assay [5] is U-251. The experiment in a line: Cytotoxicity against human U251 cells assessed as decrease in cell proliferation after 48 hrs by MTT colorimetric assay. Type of assay: functional, cell-based. The note with it: U-251, 48 h.
Assay [6] concerns A549. The experiment in a line: Cytotoxicity against human A549 cells assessed as decrease in cell proliferation after 48 hrs by MTT colorimetric assay. The settings on record: A549, 48 h. The class given is functional, cell-based.
Assay [7] deals with HepG2. Nature of the assay: Potency index, ratio of sarsasapogenin IC50 to test compound IC50 for human HepG2 cells. Type of assay: functional.
Assay [8] has as its system A549. Nature of the assay: Potency index, ratio of sarsasapogenin IC50 to test compound IC50 for human A549 cells. Type of assay: functional.

These results are taken from ChEMBL document CHEMBL3994607, “Synthesis of new sarsasapogenin derivatives with cytotoxicity and apoptosis-inducing activities in human breast cancer MCF-7 cells” (Eur J Med Chem, 2017).

By IC50 is commonly meant the point on the concentration scale where inhibition reaches its midpoint.

For `COc1ccc(CO[C@H]2CC[C@@]3(C)[C@H](CC[C@@H]4[C@@H]3CC[C@]3(C)[C@H]5[C@H](C)[C@@H](CC[C@H](C)CN(C)C)O[C@H]5C[C@@H]43)C2)cc1`, the concentration for half-maximal inhibition (IC50) in assay [1] was 79.5 µM; in assay [2], 23.4 µM; in assay [3], > 100 µM; in assay [4] it was > 100 µM; in assay [5], > 100 µM; in assay [6], > 100 µM.

Consider `C[C@@H](CC[C@H]1O[C@H]2C[C@H]3[C@@H]4CC[C@@H]5C[C@@H](OCc6ccccc6)CC[C@]5(C)[C@H]4CC[C@]3(C)[C@H]2[C@@H]1C)CN1CCN(C)CC1`, for which the IC50 is 52.3 µM in assay [1]; 70.8 µM in assay [2]; > 100 µM in assay [3]; > 100 µM in assay [4]; > 100 µM in assay [5]; > 100 µM in assay [6].

Turning to `C[C@@H](CC[C@H]1O[C@H]2C[C@H]3[C@@H]4CC[C@@H]5C[C@@H](OCc6ccc(F)cc6)CC[C@]5(C)[C@H]4CC[C@]3(C)[C@H]2[C@@H]1C)CN1CCNCC1`, the IC50 in assay [1] amounted to 8.61 µM; in assay [2], 16.8 µM; in assay [3], 15.6 µM; in assay [4], 16.7 µM; in assay [5], 31.3 µM; in assay [6], 14.3 µM. In assay [7], the “Ratio IC50” value is 4.7.

As to `C[C@@H](CC[C@H]1O[C@H]2C[C@H]3[C@@H]4CC[C@@H]5C[C@@H](OCc6ccc(F)cc6)CC[C@]5(C)[C@H]4CC[C@]3(C)[C@H]2[C@@H]1C)CN1CCN(C)CC1`, the IC50 in assay [1] is 35.6 µM; in assay [2] it was > 100 µM; in assay [3] it was > 100 µM; in assay [4] it was 44.1 µM; in assay [5] it was > 100 µM; in assay [6], 13.9 µM.

Consider `C[C@H](CO)CC[C@H]1O[C@H]2C[C@H]3[C@@H]4CC[C@@H]5C[C@@H](OCc6ccc(F)cc6)CC[C@]5(C)[C@H]4CC[C@]3(C)[C@H]2[C@@H]1C`, for which the IC50 in assay [1] was 14.5 µM; in assay [2], 11.7 µM; in assay [3], 97.3 µM; in assay [4] it was 44.1 µM; in assay [5], 38.8 µM; in assay [6] it was 25.1 µM.

For the compound `C[C@@H](CC[C@H]1O[C@H]2C[C@H]3[C@@H]4CC[C@@H]5C[C@@H](OCc6ccccc6)CC[C@]5(C)[C@H]4CC[C@]3(C)[C@H]2[C@@H]1C)CN1CCCC1`, the IC50 turned out to be 30.4 µM in assay [1]; 26.8 µM in assay [2]; 36 µM in assay [3]; 37.6 µM in assay [4]; 23.6 µM in assay [5]; 27.1 µM in assay [6].

Turning to `C[C@@H](CC[C@H]1O[C@H]2C[C@H]3[C@@H]4CC[C@@H]5C[C@@H](OCc6ccc(F)cc6)CC[C@]5(C)[C@H]4CC[C@]3(C)[C@H]2[C@@H]1C)CN(C)C`, the IC50 was 27.2 µM in assay [1]; > 100 µM in assay [2]; > 100 µM in assay [3]; 17.9 µM in assay [4]; 14.1 µM in assay [5]; 4.02 µM in assay [6]. For the same compound, in assay [8], the “Ratio IC50” value came out at 9.5.

For the compound `CCN(CC)C[C@@H](C)CC[C@H]1O[C@H]2C[C@H]3[C@@H]4CC[C@@H]5C[C@@H](OCc6ccc(OC)cc6)CC[C@]5(C)[C@H]4CC[C@]3(C)[C@H]2[C@@H]1C`, the IC50 in assay [1] was 13.9 µM; in assay [2], > 100 µM; in assay [3] it was 14.7 µM; in assay [4], 4.83 µM; in assay [5], 12.9 µM; in assay [6], 14.3 µM.

`C[C@H]1CC[C@@]2(OC1)O[C@H]1C[C@H]3[C@@H]4CC[C@@H]5C[C@@H](O)CC[C@]5(C)[C@H]4CC[C@]3(C)[C@H]1[C@@H]2C` [SARSASAPOGENIN]: the concentration for half-maximal inhibition (IC50) in assay [1] was 40.3 µM; in assay [2] it was > 100 µM; in assay [3], > 100 µM; in assay [4], 49.2 µM; in assay [5] it was > 100 µM; in assay [6], 38.1 µM.

Take `O=c1[nH]cc(F)c(=O)[nH]1` [FLUOROURACIL]: the results for the IC50 in assay [1] and in assay [5] were 10.2 µM and 48.7 µM, respectively.

As to `CO[C@H]1CC[C@@]2(C)[C@H](CC[C@@H]3[C@@H]2CC[C@]2(C)[C@H]4[C@H](C)[C@@H](CC[C@@H](C)CN5CCCC5)O[C@H]4C[C@@H]32)C1`, the IC50 in assay [1] is 4.24 µM.

Turning to `CCN(CC)C[C@@H](C)CC[C@H]1O[C@H]2C[C@H]3[C@@H]4CC[C@@H]5C[C@@H](OCc6ccc(F)cc6)CC[C@]5(C)[C@H]4CC[C@]3(C)[C@H]2[C@@H]1C`, the IC50 in assay [1] is 26.4 µM; in assay [2] it was > 100 µM; in assay [3], > 100 µM; in assay [4], 45.2 µM; in assay [5], > 100 µM; in assay [6], 18 µM.

Regarding `C[C@@H](CC[C@H]1O[C@H]2C[C@H]3[C@@H]4CC[C@@H]5C[C@@H](OCc6ccc(F)cc6)CC[C@]5(C)[C@H]4CC[C@]3(C)[C@H]2[C@@H]1C)CN1CCCC1`, the IC50 in assay [1] is 4.38 µM; in assay [2] it was 12.9 µM; in assay [3], 9.68 µM; in assay [4], 5.13 µM; in assay [5] it was 7.1 µM; in assay [6] it was 8.98 µM. For the same compound, the “Ratio IC50” value in assay [7] came out at 9.2.

In the case of `CO[C@H]1CC[C@@]2(C)[C@H](CC[C@@H]3[C@@H]2CC[C@]2(C)[C@H]4[C@H](C)[C@@H](CC[C@@H](C)CN5CCNCC5)O[C@H]4C[C@@H]32)C1`, the IC50 in assay [1] stood at 35.5 µM.

Consider `COc1ccc(CO[C@H]2CC[C@@]3(C)[C@H](CC[C@@H]4[C@@H]3CC[C@]3(C)[C@H]5[C@H](C)[C@@H](CC[C@H](C)CN6CCN(C)CC6)O[C@H]5C[C@@H]43)C2)cc1`, for which the half-maximal inhibitory concentration (IC50) in assay [1] is 21.4 µM; in assay [2], > 100 µM; in assay [3] it was 9.12 µM; in assay [4] it was 3.74 µM; in assay [5] it was 8.37 µM; in assay [6], 6.78 µM.

Turning to `CCN(CC)C[C@@H](C)CC[C@H]1O[C@H]2C[C@H]3[C@@H]4CC[C@@H]5C[C@@H](OCc6ccccc6)CC[C@]5(C)[C@H]4CC[C@]3(C)[C@H]2[C@@H]1C`, the IC50 in assay [1] is 44 µM; in assay [2], 28.2 µM; in assay [3] it was > 100 µM; in assay [4] it was 93 µM; in assay [5] it was > 100 µM; in assay [6], 67.2 µM.

As for `C[C@H](CO)CC[C@H]1O[C@H]2C[C@H]3[C@@H]4CC[C@@H]5C[C@@H](OCc6ccccc6)CC[C@]5(C)[C@H]4CC[C@]3(C)[C@H]2[C@@H]1C`, the half-inhibitory concentration (IC50) in assay [1] stood at 14.5 µM; in assay [2], 10.1 µM; in assay [3], 25 µM; in assay [4] it was 22.1 µM; in assay [5], 19.8 µM; in assay [6], 34.4 µM.

For the compound `C[C@@H](CC[C@H]1O[C@H]2C[C@H]3[C@@H]4CC[C@@H]5C[C@@H](OCc6ccccc6)CC[C@]5(C)[C@H]4CC[C@]3(C)[C@H]2[C@@H]1C)CN1CCNCC1`, the IC50 in assay [1], in assay [2], in assay [3], in assay [4], in assay [5] and in assay [6] was > 100 µM each time.

For the compound `COc1ccc(CO[C@H]2CC[C@@]3(C)[C@H](CC[C@@H]4[C@@H]3CC[C@]3(C)[C@H]5[C@H](C)[C@@H](CC[C@H](C)CN6CCCC6)O[C@H]5C[C@@H]43)C2)cc1`, the IC50 in assay [1] was > 100 µM; in assay [2], 69.9 µM; in assay [3], > 100 µM; in assay [4], > 100 µM; in assay [5] it was > 100 µM; in assay [6] it was > 100 µM.

With `C[C@@H](CC[C@H]1O[C@H]2C[C@H]3[C@@H]4CC[C@@H]5C[C@@H](OCc6ccccc6)CC[C@]5(C)[C@H]4CC[C@]3(C)[C@H]2[C@@H]1C)CN(C)C`, the IC50 in assay [1] was 42.7 µM; in assay [2] it was 28.3 µM; in assay [3], > 100 µM; in assay [4] it was > 100 µM; in assay [5], > 100 µM; in assay [6], 91.3 µM.
